Measured values taken from ChEMBL document CHEMBL5385847, “Design, synthesis and biological evaluation of a new class of 7H-pyrrolo[2,3-d]pyrimidine derivatives as Mps1 inhibitors for the treatment of breast cancer” (Eur J Med Chem, 2023).
The source made the active and inactive calls. The calls are words filed in the database; no cut-off is given here.

system: MCF7; assay: Induction of apoptosis in human MCF7 cells assessed as late apoptotic cells at 5 uM incubated for 48 hrs by Annexin V-FITC/PI staining based flow cytometry (reference value: 0.63 %); type: functional; details: not given

Row | SMILES | Activity [%]
1 | Cc1cc(N2CCOCC2)ccc1Nc1nc(NC2CCCCC2)c2nc[nH]c2n1 | 4.31

system: 4T1; assay: Induction of apoptosis in 4T1 cells assessed as early apoptotic cells at 5 uM incubated for 48 hrs by Annexin V-FITC/PI staining based flow cytometry (reference value: 0.32 %); type: functional, Mus musculus; details: not given

Row | SMILES | Activity [%]
2 | Cc1cc(N2CCOCC2)ccc1Nc1nc(NC2CCCCC2)c2nc[nH]c2n1 | 1.56

target: T1, Dual specificity protein kinase TTK (Homo sapiens, UniProt P33981); assay: Inhibition of Mps1 (unknown origin) incubated for 120 mins in presence of substrate/ATP by ADP-Glo assay; details: not given
T1 sequence (P33981 whole entry): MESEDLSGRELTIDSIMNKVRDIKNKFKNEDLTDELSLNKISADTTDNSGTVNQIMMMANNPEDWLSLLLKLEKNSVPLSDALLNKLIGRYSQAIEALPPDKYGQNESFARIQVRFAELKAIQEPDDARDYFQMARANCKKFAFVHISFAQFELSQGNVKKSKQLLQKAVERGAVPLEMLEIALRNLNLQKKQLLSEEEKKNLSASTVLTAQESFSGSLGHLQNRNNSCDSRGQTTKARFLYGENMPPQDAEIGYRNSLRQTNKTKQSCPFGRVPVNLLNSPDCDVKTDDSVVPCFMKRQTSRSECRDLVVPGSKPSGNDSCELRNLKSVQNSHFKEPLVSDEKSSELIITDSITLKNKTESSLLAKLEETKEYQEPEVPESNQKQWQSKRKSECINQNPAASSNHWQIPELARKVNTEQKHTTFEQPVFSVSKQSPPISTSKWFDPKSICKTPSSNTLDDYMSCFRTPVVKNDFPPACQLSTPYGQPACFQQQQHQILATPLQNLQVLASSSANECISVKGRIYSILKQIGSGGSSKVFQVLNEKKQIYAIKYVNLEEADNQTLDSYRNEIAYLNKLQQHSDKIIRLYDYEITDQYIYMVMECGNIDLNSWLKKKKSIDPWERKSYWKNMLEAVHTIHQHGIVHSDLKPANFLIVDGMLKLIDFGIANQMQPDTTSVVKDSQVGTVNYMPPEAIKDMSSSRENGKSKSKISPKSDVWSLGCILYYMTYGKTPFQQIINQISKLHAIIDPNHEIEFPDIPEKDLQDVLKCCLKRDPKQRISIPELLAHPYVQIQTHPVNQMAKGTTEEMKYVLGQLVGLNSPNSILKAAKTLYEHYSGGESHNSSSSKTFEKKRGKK

Row | SMILES | IC50 [µM]
3 | CN1CCN(c2ccc(Nc3nc(-n4nc(N)c5ccccc54)c4cc[nH]c4n3)cc2Cl)CC1 | 0.05
4 | CN1CCN(c2ccc(Nc3nc(-n4cnc5ccccc54)c4cc[nH]c4n3)cc2)CC1 | 0.083
5 | Nc1nn(-c2nc(Nc3ccccc3)nc3[nH]ccc23)c2ccccc12 | 0.106
6 | CCN1CCN(c2ccc(Nc3nc(-n4nc(N)c5ccccc54)c4cc[nH]c4n3)cc2)CC1 | 0.032
7 | COc1ccccc1Nc1nc(-n2nc(N)c3ccccc32)c2cc[nH]c2n1 | 0.051
8 | CN1CCN(c2ccc(Nc3nc(-n4ccc5cnccc54)c4cc[nH]c4n3)cc2)CC1 | 0.149
9 | c1ccc2c(c1)ncn2-c1nc(Nc2ccc(N3CCOCC3)cc2)nc2[nH]ccc12 | 0.047
10 | Nc1nn(-c2nc(Nc3ccccc3Cl)nc3[nH]ccc23)c2ccccc12 | 0.068
11 | COc1cc(N2CCOCC2)ccc1Nc1nc(-n2cnc3ccccc32)c2cc[nH]c2n1 | 0.04
12 | CN1CCN(c2ccc(Nc3nc(-n4ccc5ccccc54)c4cc[nH]c4n3)cc2)CC1 | 0.137
13 | Cc1cc(N2CCN(C)CC2)ccc1Nc1nc(-n2nc(N)c3ccccc32)c2cc[nH]c2n1 | 0.041
14 | COc1cc(N2CCOCC2)ccc1Nc1nc(-n2ccc3cnccc32)c2cc[nH]c2n1 | 0.154

The remaining lines, values ahead:

Row | IC50 [µM] | SMILES
15 | 0.464 | c1cc2c(ccn2-c2nc(Nc3ccc(N4CCOCC4)cc3)nc3[nH]ccc23)cn1
16 | 0.338 | CCc1ccccc1Nc1nc(-n2nc(N)c3ccccc32)c2cc[nH]c2n1
17 | 0.154 | Nc1nn(-c2nc(Nc3ccccc3OC(F)(F)F)nc3[nH]ccc23)c2ccccc12
18 | 0.144 | c1ccc2c(c1)ccn2-c1nc(Nc2ccc(N3CCOCC3)cc2)nc2[nH]ccc12
19 | 0.132 | COc1cc(N2CCOCC2)ccc1Nc1nc(-n2ccc3ccccc32)c2cc[nH]c2n1
20 | 0.067 | CN1CCN(c2ccc(Nc3nc(-c4cnn(C)c4)c4cc[nH]c4n3)cc2)CC1
21 | 0.054 | Nc1nn(-c2nc(Nc3ccccc3F)nc3[nH]ccc23)c2ccccc12
22 | 0.049 | Nc1nn(-c2nc(Nc3ccc(N4CCOCC4)cc3)nc3[nH]ccc23)c2ccccc12
23 | 0.049 | Cn1cc(-c2nc(Nc3ccc(N4CCOCC4)cc3)nc3[nH]ccc23)cn1
24 | 0.035 | CN1CCN(c2ccc(Nc3nc(-n4nc(N)c5ccccc54)c4cc[nH]c4n3)cc2F)CC1
25 | 0.034 | COc1cc(N2CCOCC2)ccc1Nc1nc(-c2cnn(C)c2)c2cc[nH]c2n1
26 | 0.033 | COc1cc(N2CCOCC2)ccc1Nc1nc(-n2nc(N)c3ccccc32)c2cc[nH]c2n1

system: 4T1; assay: Induction of apoptosis in 4T1 cells assessed as late apoptotic cells at 5 uM incubated for 48 hrs by Annexin V-FITC/PI staining based flow cytometry (reference value: 1.73 %); type: functional, Mus musculus; details: not given

Row | SMILES | Activity [%]
27 | Cc1cc(N2CCOCC2)ccc1Nc1nc(NC2CCCCC2)c2nc[nH]c2n1 | 9.86

system: MCF7; assay: Induction of apoptosis in human MCF7 cells assessed as necrotic cells at 5 uM incubated for 48 hrs by Annexin V-FITC/PI staining based flow cytometry (reference value: 0.03 %); type: functional; details: not given

Row | SMILES | Activity [%]
28 | Cc1cc(N2CCOCC2)ccc1Nc1nc(NC2CCCCC2)c2nc[nH]c2n1 | 0.35

system: 4T1-Luc; assay: Antitumor activity against mouse 4T1-Luc cells xenografted in BALB/C mouse assessed as delay in tumor growth at 10 mg/kg, ip dosed once a week for 15 days; type: functional, organism-based; details: time 15.0 day

Row | SMILES | Activity
29 | CC(=O)O[C@H]1C(=O)[C@@]2(C)[C@H]([C@H](OC(=O)c3ccccc3)[C@]3(O)C[C@H](OC(=O)[C@H](O)[C@@H](NC(=O)c4ccccc4)c4ccccc4)C(C)=C1C3(C)C)[C@]1(OC(C)=O)CO[C@@H]1C[C@@H]2O | Active

system: MCF7; assay: Induction of apoptosis in human MCF7 cells assessed as early apoptotic cells at 5 uM incubated for 48 hrs by Annexin V-FITC/PI staining based flow cytometry (reference value: 1.19 %); type: functional; details: not given

Row | SMILES | Activity [%]
30 | Cc1cc(N2CCOCC2)ccc1Nc1nc(NC2CCCCC2)c2nc[nH]c2n1 | 5.46

system: 4T1; assay: Induction of apoptosis in 4T1 cells assessed as necrotic cells at 5 uM incubated for 48 hrs by Annexin V-FITC/PI staining based flow cytometry (reference value: 0.20 %); type: functional, Mus musculus; details: not given

Row | SMILES | Activity [%]
31 | Cc1cc(N2CCOCC2)ccc1Nc1nc(NC2CCCCC2)c2nc[nH]c2n1 | 0.54
